For assay [1], the target named is T1, ORF2p core (Homo sapiens, UniProt O00370).
T1 construct: His6-MBP-3C-ORF2p (238-1061, ORFeus-Hs) in pET41; His6-MBP (3C protease site) (N, cleaved yes); made in house; host or cells: E. coli
Description: Gel-based L1 RT assay, ORF2p core, inhibition by NRTI triphosphates. The settings on record: 100 nM dNTP mixture. The format is biochemical. As to the method:
(§1) ORF2p core was preincubated with a template:primer containing a single site for the incorporation of a given nucleotide analogue. The primer/template sequence shown in the panel a illustrates the case of single incorporation of 3TC, with a single G for incorporation; the incoming template sequence for entecavir and carbovir has a single C, and for d4T a single A, each at position labeled “N”. Reactions were incubated for one minute at 37 °C with a 100 nM dNTP mixture and increasing concentrations of listed inhibitors. IC50 index, fold = IC50 (drug, µM) ÷ [dNTP] […] Fluorescein-labeled dNTPs (here, uracil-TP) are incorporated by ORF2p into a biotinylated primer, here shown against a poly(A) template. Detection is then achieved using FRET with a terbium cryptate labeled streptavidin, and the time-resolved technique and time-delayed emission from terbium cryptate reduces background from other fluorescent chemicals in the mix. In the presence of ORF2p RT inhibitors (RTIs), base incorporation is stopped and FRET signal is lost. […]
(§2) ORF2p reverse transcriptase activity assays […]
Gel-based RT activity assays consisted of pr e-incubating RTs with annealed DNA/RNA, DNA/DNA, or RNA/RNA 5’- end- radiolabeled or 5’-end-Cy5- o r FAM-labeled template:primer duplex or hybrid duplex and, where indicated, inhibitor in the presence of 0.1- 1 μ M dNTP or NTP mixture, 0.25 mM EDTA, 50 mM NaCl, and 25 mM Tris (pH 8) for 10 min at 37°C. Labeled nucleic acids were purchased from Dharmacon or IDT. Unless otherwise indicated, 15 μL reactions were initiated by the addition of 1.3 mM MgCl2, incubated for 10 min at 37 °C, and then stopped by the addition of 15 μL of formamide/EDTA (25 mM) mixture and incubated at 95 °C for 10 min. 3 μL reaction samples were subjected to denaturing 8 M urea 20% PAGE to resolve products followed by signal quantification (ImageQuant 5.2, GE Healthcare Bio- Sciences) through phosphorimaging (Amersham Typhoon 5, Cytivia). Scanned gel images are […]
minor products; original images are provided in an Extended Data file. […]

For assay [2], the target named is T1, ORF2p core. Put plainly: Homogeneous time-resolved fluorescence (HTRF) ORF2p RT assay. The settings on record: HTRF; NRTI NTPs. The format is biochemical. The method, then: as §1, §2
For HTRF RT assays157, 25 nM ORF2p core and 12. 5 nM t em plat e: primer was incubated at 25°C for 60 minutes
with 10 nM of fluorescein- 12- dUTP (Thermo), 1 µM each (dATP,dCTP,dGTP), and test compound in a 15 µL
reaction with buffer containing 50 mM Tris-HCl, 50 mM KCl, 10 mM MgCl2, 10 mM DTT, pH 8.1, and 1% final
(In general: Time-resolved FRET reads energy transfer from a long-lived donor to a nearby acceptor.)

In assay [3] the target is T2, Full-length ORF2p WT (FADD) (Homo sapiens, UniProt O00370).
T2 construct: gel-based RT assay of full-length ORF2p WT (FADD) or HIV-like (FMDD); His8 (C); HERV-K protease + TEV protease + TEV site (self-processed; leaves one Gly) (N, cleaved yes); made in house; host or cells: SF9 insect cells (MultiBac)
Put plainly: Gel-based RT assay of full-length ORF2p WT (FADD). The class given is biochemical. The conditions noted are these: single-nucleotide-resolution RT assays. An excerpt: (§3) Crystal structure of AZT triphosphate bound to HIV-1 RT (PDB 5I42) versus model of AZT triphosphate bound to L1 ORF2p. […] Left, HIV-1 RT in the NNRTI-unbound conformation (PDB 7LRI). Residues involved in NNRTI-resistance are highlighted; space occupied by HIV-1-bound nevirapine is shadowed (PDB 4PUO). Right, equivalent region in L1 ORF2p. The long α-helix corresponds to residues 572–588 in ORF2p. […] Data in a, b and e are representative of two independent experiments and shown as mean ± s.d. […]
(§4) server155 and manually checked with cutoff of 2.5-3.3 Å for polar interactions and 3.7 Å for van der Waals […]
(§5) ORF2p reverse transcriptase activity assays
(§6) Microwell assays were performed using the reverse transcriptase assay, colorimetric (Roche) according to the manufacturer’s instructions, with the supplied poly(A) template and oligo(dT) 15 primer. ORF2p fractions were diluted for assay in lysis/binding buffer (50 mM Tris, 80 mM potassium chloride, 2.5 mM DTT, 0.75 mM EDTA, and 0.5% Triton X- 100; pH 7.8) and incorporation of digoxigenin- and biotin- labeled dUTP into DNA was measured by absorbance at 405 nm as compared to a 490 nm reference. […] 3 μL reaction samples were subjected to denaturing 8 M urea 20% PAGE to resolve products followed by signal quantification (ImageQuant 5.2, GE Healthcare Bio- Sciences) through phosphorimaging (Amersham Typhoon 5, Cytivia). […]

Assay [4] concerns the target T3, A701M mutant full-length ORF2p (FMDD) (Homo sapiens, UniProt O00370, A701M).
T3 construct: His8 (C); HERV-K protease + TEV protease + TEV site (self-processed; leaves one Gly) (N, cleaved yes); made in house; host or cells: SF9 insect cells (MultiBac)
Description: Gel-based RT assay of full-length ORF2p A701M mutant (FMDD). The class given is biochemical.
Text: as §3, §4, §5, §6

For assay [5], the system named is L1 retrotransposition reporter in HeLa cells. Description: LINE-1 dual luciferase retrotransposition assay in HeLa cells. The format is cell-based, human. The conditions noted are these: HeLa cells, stable dual luciferase L1 reporter, normalized to cell viability, n = 3 wells.

Regarding `Nc1ccn([C@@H]2CS[C@H](CO)O2)c(=O)n1` [3TC, lamivudine], the “IC50 index, fold = IC50 (drug, µM) ÷ [dNTP] (natural counterpart, 0.1 µM)” value at ORF2p core [1] is 56 fold. Also, the IC50 (usually the concentration needed to halve the response being measured) is 5 to 7 µM on ORF2p core [1] (NTP forms of NRTIs, one minute at 37 °C); 200 to 750 nM on ORF2p core [2]; 900 nM in assay [5]; 1000 to 5000 nM in assay [5] (Homo sapiens, HeLa). For the same molecule, in assay [3], the “inhibition of full-length ORF2p compared with ORF2p core” value is “similarly inhibited”. Moreover, the “fold more potent in inhibiting A701M mutant full-length ORF2p (FMDD) than wild type (FADD)” value in assay [4] is on record as “approximately 15 fold”.

The record behind these values is publication PMC10830420, “Structures, functions and adaptations of the human LINE-1 ORF2 protein” (Nature, 2023).
